This note sets out measurements from PubChem BioAssay (NCI).

Test systems include 786-0 renal; A549 NSCLC; ACHN renal; HL-60(TB) leukemia; HOP-92 NSCLC; OVCAR-4 ovarian; SN12C renal; SNB-19 CNS; U251 CNS.
Common to all, as to test: growth of human tumour cells (NCI), 48 h

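Dose response: 5 concentrations. Exposure: 48 h. Format: 96-well plates. Endpoint: linear interpolation; highest concentration if not reached. GI50 marks 50% less growth. TGI denotes the concentration required for complete inhibition of growth.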

For the molecule `COc1ccc(-c2cc(C(=O)Nc3cccc(C(F)(F)F)c3)[nH]c(=S)n2)cc1`, the TGI in the assay with 786-0 renal, in the assay on A549 NSCLC, in the assay on ACHN renal, with HL-60(TB) leukemia, in the assay on HOP-92 NSCLC and in the assay with OVCAR-4 ovarian was above 100 µM throughout. Further, the TGI with SN12C renal, in the assay with SNB-19 CNS and with U251 CNS was above 100 µM throughout.

`Cc1c(/C=C2\CC/C(=C\c3[nH]c(C(=O)OC(C)(C)C)c(C)c3C)C2=O)[nH]c(C(=O)OC(C)(C)C)c1C`: the TGI in the assay on 786-0 renal, with A549 NSCLC, in the assay on HL-60(TB) leukemia, in the assay with HOP-92 NSCLC, in the assay on OVCAR-4 ovarian and in the assay with SN12C renal was above 100 µM each time. Besides, the TGI in the assay on SNB-19 CNS and in the assay with U251 CNS was above 100 µM in each case.

Regarding `O=c1/c(=C/c2cccc3ccccc23)sc2nc3ccccc3n12`, the TGI in the assay on 786-0 renal, with A549 NSCLC, in the assay on ACHN renal, in the assay with HL-60(TB) leukemia, in the assay on HOP-92 NSCLC and in the assay with OVCAR-4 ovarian was above 100 µM in each case. For the same molecule, the TGI in the assay on SN12C renal, with SNB-19 CNS and in the assay with U251 CNS was above 100 µM throughout.

In the case of `COc1cc(OC)cc(N2CCC(c3c(N)nc(N)nc3Cl)CC2)c1`, the TGI in the assay with 786-0 renal, with A549 NSCLC, in the assay with ACHN renal, with HL-60(TB) leukemia, in the assay on HOP-92 NSCLC and in the assay with OVCAR-4 ovarian was above 100 µM throughout. The TGI in the assay with SN12C renal and with SNB-19 CNS was above 100 µM in each case.

Turning to `COc1nc(OC)c2c(=O)oc(-c3ccccc3)cc2n1`, the TGI in the assay with 786-0 renal, in the assay on A549 NSCLC, in the assay with ACHN renal, in the assay on HOP-92 NSCLC, in the assay with OVCAR-4 ovarian and in the assay with SN12C renal was above 100 µM each time. The TGI in the assay with SNB-19 CNS and in the assay on U251 CNS was above 100 µM throughout.

Take `CS(=O)(=O)C1S(=O)(=O)OCCOS1(=O)=O`: the TGI in the assay with 786-0 renal, in the assay with A549 NSCLC, in the assay on ACHN renal, with HL-60(TB) leukemia, in the assay with HOP-92 NSCLC and in the assay with OVCAR-4 ovarian was above 100 µM each time. In addition, the TGI in the assay with SN12C renal, in the assay on SNB-19 CNS and in the assay with U251 CNS was above 100 µM throughout.

For the molecule `O=c1cc2n(c(=O)[nH]1)C1OC(C(O)C1O)[C@@H]2CCO` (stereo partly specified), the TGI in the assay on 786-0 renal, in the assay on A549 NSCLC, with ACHN renal, in the assay on HL-60(TB) leukemia, with HOP-92 NSCLC and in the assay with OVCAR-4 ovarian was above 100 µM each time. The TGI in the assay on SN12C renal, in the assay on SNB-19 CNS and with U251 CNS was above 100 µM throughout.

`COC(=O)c1cnc2nc(N3CCOCC3)[nH]n2c1=O`: the TGI in the assay on 786-0 renal, in the assay with A549 NSCLC, in the assay with ACHN renal, in the assay on HL-60(TB) leukemia, in the assay on HOP-92 NSCLC and in the assay with OVCAR-4 ovarian was above 100 µM in each case. Further, the TGI with SN12C renal, in the assay with SNB-19 CNS and in the assay with U251 CNS was above 100 µM throughout.

As to `COc1cc2c(cc1OC)C13CCN4CC5=CCOC(CC(=O)O)C(C5CC41)C3N2` (stereo unspecified), the TGI in the assay with 786-0 renal, in the assay on A549 NSCLC, in the assay on ACHN renal, in the assay on HL-60(TB) leukemia, in the assay with HOP-92 NSCLC and with OVCAR-4 ovarian was above 100 µM throughout. In addition, the TGI in the assay with SN12C renal, in the assay on SNB-19 CNS and in the assay with U251 CNS was above 100 µM throughout.

Regarding `CCc1nc2c(O)ccc(O)c2nc1C`, the TGI was 26.3 µM in the assay with 786-0 renal; 44.5 µM with A549 NSCLC; 23 µM with ACHN renal; above 21.7 µM in the assay with HL-60(TB) leukemia; 13.7 µM in the assay with HOP-92 NSCLC; 17.3 µM in the assay on OVCAR-4 ovarian. The figures for the TGI in the assay with SN12C renal, in the assay on SNB-19 CNS and with U251 CNS were 29.6 µM, 33.7 µM and 30.2 µM, respectively.

As for `CCOC(C)OCC#CCCBr` (stereo unspecified), the TGI with 786-0 renal, with A549 NSCLC, in the assay on ACHN renal, in the assay on HL-60(TB) leukemia, in the assay with OVCAR-4 ovarian and in the assay on SN12C renal was above 100 µM each time. The TGI in the assay on SNB-19 CNS and in the assay with U251 CNS was above 100 µM each time.

Turning to `CC(C)(C)c1nc2c(o1)C(=Nc1ccccc1)c1ccccc1C2=O`, the TGI in the assay on 786-0 renal was 64.3 µM; in the assay with A549 NSCLC, 23.5 µM; in the assay on ACHN renal, 26.6 µM; in the assay on HL-60(TB) leukemia, 16.6 µM; with HOP-92 NSCLC it was 23.8 µM; in the assay with OVCAR-4 ovarian, 10.2 µM. Further, the TGI in the assay with SN12C renal is 14.4 µM; with SNB-19 CNS, 27.5 µM; in the assay with U251 CNS, 14 µM.

For the molecule `N#C/C(=C\c1ccc(CP(=O)(O)O)cc1)C(N)=O`, the TGI in the assay with 786-0 renal, in the assay on A549 NSCLC, in the assay with ACHN renal, in the assay on HL-60(TB) leukemia, with HOP-92 NSCLC and in the assay on OVCAR-4 ovarian was above 100 µM each time. Moreover, the TGI in the assay on SN12C renal, in the assay with SNB-19 CNS and in the assay with U251 CNS was above 100 µM in each case.

As for `CC(=O)[CH-]C(=O)c1ccccc1.CC(=O)[CH-]C(=O)c1ccccc1.[Nd+3].[OH-].[OH3+]`, the GI50 in the assay with 786-0 renal, in the assay on A549 NSCLC, in the assay with ACHN renal, in the assay on HL-60(TB) leukemia, with HOP-92 NSCLC and in the assay on OVCAR-4 ovarian was above 100 µM each time. The GI50 in the assay with SN12C renal, with SNB-19 CNS and in the assay on U251 CNS was above 100 µM in each case. Moreover, the TGI in the assay with 786-0 renal, in the assay with A549 NSCLC, in the assay with ACHN renal, with HL-60(TB) leukemia, in the assay on HOP-92 NSCLC and with OVCAR-4 ovarian was above 100 µM throughout. In addition, the TGI in the assay on SN12C renal, in the assay with SNB-19 CNS and in the assay on U251 CNS was above 100 µM each time.
